Where two headings read alike, the source gives them in different places.
What was measured:
[1] = target: EGFR wildtype (WT) (Homo sapiens, UniProt P00533); test: Biochemical EGFR kinase assay (Lance Ultra TR-FRET), wildtype
In short: (§1)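 Kinase activity is measured by TR-FRET phosphopeptide detection. Compounds span 0.003 μM to 10 μM; the 1 h reaction at room temperature is quenched with EDTA, then labelled antibody (2 nM) is incubated 60 min before reading.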

[2] = target: EGFR del19/C797S (Homo sapiens, UniProt P00533, C797S/DEL746-750); test: Biochemical EGFR kinase assay (Lance Ultra TR-FRET), double mutant del19/C797S
Sequence of EGFR del19/C797S (P00533 with tags, fused parts or gaps DEL746-750/C797S): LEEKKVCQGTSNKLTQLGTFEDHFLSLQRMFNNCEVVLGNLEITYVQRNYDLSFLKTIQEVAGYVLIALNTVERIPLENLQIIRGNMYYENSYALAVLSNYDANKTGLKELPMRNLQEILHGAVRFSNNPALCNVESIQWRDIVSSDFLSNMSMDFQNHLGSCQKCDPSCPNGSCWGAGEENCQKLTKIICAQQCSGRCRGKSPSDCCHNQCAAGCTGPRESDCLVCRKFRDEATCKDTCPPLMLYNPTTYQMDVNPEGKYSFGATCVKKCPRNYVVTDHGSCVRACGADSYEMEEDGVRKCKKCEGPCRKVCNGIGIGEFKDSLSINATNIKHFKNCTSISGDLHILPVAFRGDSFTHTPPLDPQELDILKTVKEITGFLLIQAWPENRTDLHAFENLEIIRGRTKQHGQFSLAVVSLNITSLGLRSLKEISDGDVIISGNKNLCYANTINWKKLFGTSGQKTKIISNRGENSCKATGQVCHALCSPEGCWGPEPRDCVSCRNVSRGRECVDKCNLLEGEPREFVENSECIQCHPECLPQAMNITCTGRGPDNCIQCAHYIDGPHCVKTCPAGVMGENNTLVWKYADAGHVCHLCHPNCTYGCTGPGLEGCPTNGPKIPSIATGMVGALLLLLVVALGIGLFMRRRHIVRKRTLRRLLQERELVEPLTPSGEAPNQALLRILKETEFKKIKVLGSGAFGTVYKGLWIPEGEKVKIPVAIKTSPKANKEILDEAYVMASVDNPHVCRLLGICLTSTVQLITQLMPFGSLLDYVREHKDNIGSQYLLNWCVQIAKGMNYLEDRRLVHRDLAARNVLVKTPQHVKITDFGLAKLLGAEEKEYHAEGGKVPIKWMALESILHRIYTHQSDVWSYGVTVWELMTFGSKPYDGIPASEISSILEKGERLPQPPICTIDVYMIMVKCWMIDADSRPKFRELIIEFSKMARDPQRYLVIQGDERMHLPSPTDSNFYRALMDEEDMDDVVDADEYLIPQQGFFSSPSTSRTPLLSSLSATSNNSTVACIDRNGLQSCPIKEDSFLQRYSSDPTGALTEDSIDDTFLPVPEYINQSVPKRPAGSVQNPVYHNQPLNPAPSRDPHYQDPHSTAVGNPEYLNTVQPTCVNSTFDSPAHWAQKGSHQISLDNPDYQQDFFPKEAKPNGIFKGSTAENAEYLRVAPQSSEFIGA
In short: as §1

[3] = target: EGFR L858R/T790M/C797S (Homo sapiens, UniProt P00533, C797S/L858R/T790M); test: Biochemical EGFR kinase assay (Lance Ultra TR-FRET), triple mutant L858R/T790M/C797S
In short: as §1

[4] = target: EGFR del19/T790M/C797S (Homo sapiens, UniProt P00533, C797S/DEL746-750/T790M); test: Biochemical EGFR kinase assay (Lance Ultra TR-FRET), triple mutant del19/T790M/C797S
Sequence of EGFR del19/T790M/C797S (P00533 with tags, fused parts or gaps DEL746-750/T790M/C797S): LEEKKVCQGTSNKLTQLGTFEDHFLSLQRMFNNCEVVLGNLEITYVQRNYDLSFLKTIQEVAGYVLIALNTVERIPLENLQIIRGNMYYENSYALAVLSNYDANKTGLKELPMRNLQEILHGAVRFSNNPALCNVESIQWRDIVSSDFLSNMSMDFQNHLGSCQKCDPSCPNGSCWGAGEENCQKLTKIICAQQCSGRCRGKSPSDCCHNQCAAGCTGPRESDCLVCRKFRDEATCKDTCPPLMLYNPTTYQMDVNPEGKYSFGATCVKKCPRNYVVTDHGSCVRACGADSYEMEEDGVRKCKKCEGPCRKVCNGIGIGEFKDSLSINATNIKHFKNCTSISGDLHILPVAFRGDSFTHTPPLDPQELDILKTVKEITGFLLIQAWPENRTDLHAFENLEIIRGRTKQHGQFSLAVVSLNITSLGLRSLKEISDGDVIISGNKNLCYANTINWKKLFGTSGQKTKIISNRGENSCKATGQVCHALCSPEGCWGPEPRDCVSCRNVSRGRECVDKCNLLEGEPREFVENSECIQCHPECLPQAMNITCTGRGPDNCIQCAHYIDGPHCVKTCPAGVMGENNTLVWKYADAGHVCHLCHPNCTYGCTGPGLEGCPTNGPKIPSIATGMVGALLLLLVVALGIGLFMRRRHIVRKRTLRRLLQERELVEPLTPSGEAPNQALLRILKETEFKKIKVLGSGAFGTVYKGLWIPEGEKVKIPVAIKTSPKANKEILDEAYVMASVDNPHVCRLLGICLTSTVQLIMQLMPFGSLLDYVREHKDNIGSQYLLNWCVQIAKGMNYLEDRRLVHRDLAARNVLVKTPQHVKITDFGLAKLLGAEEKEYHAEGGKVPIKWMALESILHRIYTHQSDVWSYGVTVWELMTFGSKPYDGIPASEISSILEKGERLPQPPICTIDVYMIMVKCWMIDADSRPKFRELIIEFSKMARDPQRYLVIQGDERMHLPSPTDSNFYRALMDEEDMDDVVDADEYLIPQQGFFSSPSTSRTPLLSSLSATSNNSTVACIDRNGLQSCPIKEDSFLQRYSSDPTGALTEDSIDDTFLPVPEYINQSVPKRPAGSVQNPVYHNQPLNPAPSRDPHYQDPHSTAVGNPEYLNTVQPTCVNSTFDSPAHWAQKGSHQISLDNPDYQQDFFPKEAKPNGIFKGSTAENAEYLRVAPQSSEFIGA
In short: as §1

[5] = target: EGFR L858R/C797S (Homo sapiens, UniProt P00533, C797S/L858R); test: Biochemical EGFR kinase assay (Lance Ultra TR-FRET), double mutant L858R/C797S
Sequence of EGFR L858R/C797S (P00533 25-1210 C797S/L858R): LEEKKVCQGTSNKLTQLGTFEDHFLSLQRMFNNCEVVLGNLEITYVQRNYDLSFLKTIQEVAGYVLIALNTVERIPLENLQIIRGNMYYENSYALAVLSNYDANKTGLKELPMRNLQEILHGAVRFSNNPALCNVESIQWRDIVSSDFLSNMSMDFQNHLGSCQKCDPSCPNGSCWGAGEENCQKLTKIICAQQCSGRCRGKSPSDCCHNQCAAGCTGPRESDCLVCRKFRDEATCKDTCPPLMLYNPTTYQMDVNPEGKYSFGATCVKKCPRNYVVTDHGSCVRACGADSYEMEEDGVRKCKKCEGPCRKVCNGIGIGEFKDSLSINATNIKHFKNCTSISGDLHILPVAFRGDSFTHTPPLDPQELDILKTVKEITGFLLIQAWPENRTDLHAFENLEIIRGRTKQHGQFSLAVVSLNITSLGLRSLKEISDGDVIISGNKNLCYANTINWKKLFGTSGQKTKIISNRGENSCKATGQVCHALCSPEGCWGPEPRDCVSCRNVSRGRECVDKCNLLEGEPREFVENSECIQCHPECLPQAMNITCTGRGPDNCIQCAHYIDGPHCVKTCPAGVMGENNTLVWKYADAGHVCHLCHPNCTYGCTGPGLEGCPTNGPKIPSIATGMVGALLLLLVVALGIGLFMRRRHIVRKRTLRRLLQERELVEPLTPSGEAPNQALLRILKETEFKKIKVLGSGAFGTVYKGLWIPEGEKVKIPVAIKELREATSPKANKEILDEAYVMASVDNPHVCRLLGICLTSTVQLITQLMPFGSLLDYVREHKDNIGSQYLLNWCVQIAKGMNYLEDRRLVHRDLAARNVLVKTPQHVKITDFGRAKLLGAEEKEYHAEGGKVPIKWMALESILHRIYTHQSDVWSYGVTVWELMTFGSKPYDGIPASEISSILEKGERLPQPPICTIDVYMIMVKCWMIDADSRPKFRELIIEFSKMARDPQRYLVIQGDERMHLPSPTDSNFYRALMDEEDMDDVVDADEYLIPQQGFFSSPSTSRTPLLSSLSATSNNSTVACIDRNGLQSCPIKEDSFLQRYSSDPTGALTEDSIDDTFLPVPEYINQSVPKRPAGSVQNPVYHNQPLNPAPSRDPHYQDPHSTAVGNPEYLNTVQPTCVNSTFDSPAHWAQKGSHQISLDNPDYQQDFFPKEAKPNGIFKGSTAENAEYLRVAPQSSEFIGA
In short: as §1

[6] = IC50 WT (nM) 100 μM ATP, 100 μM ATP
[7] = IC50 del19/C797S (nM) 100 μM ATP, 100 μM ATP
[8] = IC50 L858R/T790M/C797S (nM) 100 μM ATP, 100 μM ATP
[9] = IC50 del19/T790M/C797S (nM) 100 μM ATP, 100 μM ATP
[10] = IC50 L858R/C797S (nM) 100 μM ATP, 100 μM ATP
[11] = Km ATP, read-out: IC50 WT (nM) Km ATP
[12] = Km ATP, read-out: IC50 del19/C797S (nM) Km ATP
[13] = Km ATP, read-out: IC50 L858R/T790M/C797S (nM) Km ATP
[14] = Km ATP, read-out: IC50 del19/T790M/C797S (nM) Km ATP
[15] = Km ATP, read-out: IC50 L858R/C797S (nM) Km ATP
[16] = Km ATP, read-out: IC50 WT, Km ATP
[17] = Km ATP, read-out: IC50 del19/C797S, Km ATP
[18] = Km ATP, read-out: IC50 L858R/T790M/C797S, Km ATP
[19] = Km ATP, read-out: IC50 del19/T790M/C797S, Km ATP
[20] = Km ATP, read-out: IC50 L858R/C797S, Km ATP

Sequence of EGFR wildtype (WT) (P00533 25-1210): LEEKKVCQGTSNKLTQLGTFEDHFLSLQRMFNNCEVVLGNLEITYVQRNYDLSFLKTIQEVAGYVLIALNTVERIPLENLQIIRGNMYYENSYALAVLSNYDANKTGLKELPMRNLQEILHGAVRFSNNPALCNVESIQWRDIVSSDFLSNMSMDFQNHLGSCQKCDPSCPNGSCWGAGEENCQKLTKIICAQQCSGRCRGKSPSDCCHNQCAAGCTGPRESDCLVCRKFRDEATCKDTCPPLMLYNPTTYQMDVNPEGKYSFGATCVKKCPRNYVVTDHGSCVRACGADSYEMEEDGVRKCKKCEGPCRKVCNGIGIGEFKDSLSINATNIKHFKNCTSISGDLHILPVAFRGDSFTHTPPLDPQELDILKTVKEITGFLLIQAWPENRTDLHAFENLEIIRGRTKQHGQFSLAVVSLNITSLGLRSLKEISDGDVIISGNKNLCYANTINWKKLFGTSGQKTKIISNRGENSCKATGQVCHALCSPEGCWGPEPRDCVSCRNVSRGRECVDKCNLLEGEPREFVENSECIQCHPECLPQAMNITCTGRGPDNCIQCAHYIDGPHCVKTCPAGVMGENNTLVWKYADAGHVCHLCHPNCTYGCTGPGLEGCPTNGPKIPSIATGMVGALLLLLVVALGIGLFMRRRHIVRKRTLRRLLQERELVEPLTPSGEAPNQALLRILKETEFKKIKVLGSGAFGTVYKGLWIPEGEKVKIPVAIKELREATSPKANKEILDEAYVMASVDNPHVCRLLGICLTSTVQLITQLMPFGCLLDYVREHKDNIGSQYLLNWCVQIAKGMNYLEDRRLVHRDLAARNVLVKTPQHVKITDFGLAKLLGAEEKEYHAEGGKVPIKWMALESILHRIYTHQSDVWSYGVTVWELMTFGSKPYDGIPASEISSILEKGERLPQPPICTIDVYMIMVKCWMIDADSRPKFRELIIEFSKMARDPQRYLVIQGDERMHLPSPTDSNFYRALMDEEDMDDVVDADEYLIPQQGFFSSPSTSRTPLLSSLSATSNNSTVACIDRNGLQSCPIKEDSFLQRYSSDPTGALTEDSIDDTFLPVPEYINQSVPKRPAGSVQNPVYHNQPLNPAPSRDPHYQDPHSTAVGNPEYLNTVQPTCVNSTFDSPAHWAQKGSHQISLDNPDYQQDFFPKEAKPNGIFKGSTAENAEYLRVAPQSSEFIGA

## CN(C)CCCn1ccc(-c2cnc(Nc3ccnc(-c4cnn(S(=O)(=O)C5CC5)c4)n3)cc2N[C@H]2CC[C@@](C)(O)CC2)n1 [Example 288, (1s,4s)-4-((2-((2-(1-(Cyclopropylsulfonyl)-1H-pyrazol-4-yl)pyrimidin-4-yl)amino)-5-(1-(3-(dimethylamino)propyl)-1H-pyrazol-3-yl)pyridin-4-yl)amino)-1-methylcyclohexan-1-ol]
[1]; [6]
  IC50: 133 nM
[2]; [7]
  IC50: 0.2 nM
[3]; [8]
  IC50: 0.2 nM
[4]; [9]
  IC50: 0.2 nM
[5]; [10]
  IC50: 0.4 nM

## O=S(=O)(C1CC1)n1cc(-c2nccc(Nc3cc(NC4CCCCC4O)c(-c4ccn(C(F)F)n4)cn3)n2)cn1 (stereo not drawn) [Example 28, 2-((2-((2-(1-(Cyclopropylsulfonyl)-1H-pyrazol-4-yl)pyrimidin-4-yl)amino)-5-(1-(difluoromethyl)-1H-pyrazol-3-yl)pyridin-4-yl)amino)cyclohexan-1-ol]
[1]; [6]
  IC50: > 10000 nM
[1]; [11]
  IC50: 241 nM
[2]; [7]
  IC50: 62.7 nM
[2]; [12]
  IC50: 95.7 nM
[3]; [8]
  IC50: 5.5 nM
[3]; [13]
  IC50: 0.8 nM
[4]; [9]
  IC50: 1.1 nM
[4]; [14]
  IC50: 0.9 nM
[5]; [10]
  IC50: 598 nM
[5]; [15]
  IC50: 21.8 nM

## CN(C)C[C@H]1CC[C@@H](Nc2cc(Nc3ccnc(-c4cnn(S(=O)(=O)C5CC5)c4)n3)ncc2-c2ccn(C)n2)CC1 [Example 226, N^2-(2-(1-(Cyclopropylsulfonyl)-1H-pyrazol-4-yl)pyrimidin-4-yl)-N^4-((1s,4s)-4-((dimethylamino)methyl)cyclohexyl)-5-(1-methyl-1H-pyrazol-3-yl)pyridine-2,4-diamine]
[1]; [6]
  IC50: 96.9 nM
[1]; [11]
  IC50: 0.2 nM
[2]; [7]
  IC50: 0.2 nM
[2]; [12]
  IC50: 0.1 nM
[3]; [8]
  IC50: 0.1 nM
[3]; [13]
  IC50: 0.1 nM
[4]; [9]
  IC50: 0.1 nM
[4]; [14]
  IC50: 0.1 nM
[5]; [15]
  IC50: 0.1 nM

## O=S(=O)(C1CC1)n1cc(-c2nccc(Nc3cc(NC[C@H]4CC[C@H](NCC(F)F)CC4)c(-c4ccn(C(F)F)n4)cn3)n2)cn1 [Example 130, N^2-(2-(1-(Cyclopropylsulfonyl)-1H-pyrazol-4-yl)pyrimidin-4-yl)-N^4-(((1r,4r)-4-((2,2-difluoroethyl)amino)cyclohexyl)methyl)-5-(1-(difluoromethyl)-1H-pyrazol-3-yl)pyridine-2,4-diamine]
[1]; read-out: IC50 WT (nM) 100 μM ATP, 100 μM ATP
  IC50: > 10000 nM
[2]; read-out: IC50 del19/C797S (nM) 100 μM ATP, 100 μM ATP
  IC50: 6.3 nM
[3]; read-out: IC50 L858R/T790M/C797S (nM) 100 μM ATP, 100 μM ATP
  IC50: 2 nM
[4]; read-out: IC50 del19/T790M/C797S (nM) 100 μM ATP, 100 μM ATP
  IC50: 2.1 nM
[5]; read-out: IC50 L858R/C797S (nM) 100 μM ATP, 100 μM ATP
  IC50: 96.5 nM

## CN[C@H]1CC[C@H](CNc2cc(Nc3ccnc(-c4cnn(S(=O)(=O)C5CC5)c4)n3)ncc2-c2ccn(C(F)F)n2)CC1 [Example 193, N^2-(2-(1-(Cyclopropylsulfonyl)-1H-pyrazol-4-yl)pyrimidin-4-yl)-5-(1-(difluoromethyl)-1H-pyrazol-3-yl)-N^4-(((1r,4r)-4-(methylamino)cyclohexyl)methyl)pyridine-2,4-diamine]
[1]; [6]
  IC50: 2050 nM
[1]; [11]
  IC50: 4 nM
[2]; [7]
  IC50: 0.7 nM
[2]; [12]
  IC50: 0.3 nM
[3]; [8]
  IC50: 0.1 nM
[3]; [13]
  IC50: 0.1 nM
[4]; [9]
  IC50: 0.2 nM
[4]; [14]
  IC50: 0.2 nM
[5]; [10]
  IC50: 7.2 nM
[5]; [15]
  IC50: 1 nM

## C[C@]1(O)CC[C@@H](Nc2cc(Nc3ccnc(-c4cccnc4F)n3)ncc2-c2ccn(C(F)F)n2)CC1 [Example 171, (1s,4s)-4-((5-(1-(Difluoromethyl)-1H-pyrazol-3-yl)-2-((2-(2-fluoropyridin-3-yl)pyrimidin-4-yl)amino)pyridin-4-yl)amino)-1-methylcyclohexan-1-ol]
[1]; [11]
  IC50: 523 nM
[2]; [12]
  IC50: 96.6 nM
[3]; [13]
  IC50: 2.2 nM
[4]; [14]
  IC50: 2.6 nM
[5]; [15]
  IC50: 86.4 nM

## Cn1nc(-c2cnc(Nc3ccnc(-c4cnn(S(=O)(=O)C5CC5)c4)n3)cc2N[C@H]2CC[C@@H](C(C)(C)O)CC2)cc1C(C)(C)O [Example 298, 2-(3-(6-((2-(1-(Cyclopropylsulfonyl)-1H-pyrazol-4-yl)pyrimidin-4-yl)amino)-4-(((1s,4s)-4-(2-hydroxypropan-2-yl)cyclohexyl)amino)pyridin-3-yl)-1-methyl-1H-pyrazol-5-yl)propan-2-ol]
[1]; [6]
  IC50: 504 nM
[1]; [11]
  IC50: 1.6 nM
[2]; [7]
  IC50: 0.8 nM
[2]; [12]
  IC50: 1 nM
[3]; [8]
  IC50: 1 nM
[3]; [13]
  IC50: 0.3 nM
[4]; [9]
  IC50: 1.8 nM
[5]; [10]
  IC50: 1.7 nM
[5]; [15]
  IC50: 1.1 nM

## CC(C)Nc1nc(Nc2ccnc(-c3cnn(S(=O)(=O)C4CC4)c3)c2)ncc1-c1ccn(C(F)F)n1 [Example 363, N^2-(2-(1-(Cyclopropylsulfonyl)-1H-pyrazol-4-yl)pyridin-4-yl)-5-(1-(difluoromethyl)-1H-pyrazol-3-yl)-N^4-isopropylpyrimidine-2,4-diamine]
[1]; [16]
  IC50: 4270 nM
[2]; [17]
  IC50: 404 nM
[3]; [18]
  IC50: 4.3 nM
[4]; [19]
  IC50: 3.4 nM
[5]; [20]
  IC50: 665 nM

## C[C@]1(O)CC[C@@H](Nc2nc(Nc3ccnc(-c4cnn(CC(F)F)c4)c3)ncc2-c2ccn(C(F)F)n2)CC1 [Example 362, (1s,4s)-4-((2-((2-(1-(2,2-Difluoroethyl)-1H-pyrazol-4-yl)pyridin-4-yl)amino)-5-(1-(difluoromethyl)-1H-pyrazol-3-yl)pyrimidin-4-yl)amino)-1-methylcyclohexan-1-ol]
[1]; [16]
  IC50: 159 nM
[2]; [17]
  IC50: 12.8 nM
[3]; [18]
  IC50: 0.1 nM
[4]; [19]
  IC50: 0.2 nM
[5]; [20]
  IC50: 5 nM

## C[C@H](CCF)Nc1cc(Nc2ccnc(-c3cnn(S(=O)(=O)C4CC4)c3)n2)ncc1-c1ccn(C(F)F)n1 [Example 212, (R)—N^2-(2-(1-(Cyclopropylsulfonyl)-1H-pyrazol-4-yl)pyrimidin-4-yl)-5-(1-(difluoromethyl)-1H-pyrazol-3-yl)-N^4-(4-fluorobutan-2-yl)pyridine-2,4-diamine]
[1]; [11]
  IC50: 294 nM
[2]; [12]
  IC50: 72 nM
[3]; [13]
  IC50: 2.3 nM
[4]; [14]
  IC50: 2.1 nM
[5]; [15]
  IC50: 38.5 nM

## CN(C)C[C@H]1CC[C@@H](Nc2cc(Nc3ccnc(-c4cnn(S(=O)(=O)C5CC5)c4)n3)ncc2-c2cc3n(n2)CCCC3)CC1 [Example 277, N^2-(2-(1-(Cyclopropylsulfonyl)-1H-pyrazol-4-yl)pyrimidin-4-yl)-N^4-((1s,4s)-4-((dimethylamino)methyl)cyclohexyl)-5-(4,5,6,7-tetrahydropyrazolo[1,5-a]pyridin-2-yl)pyridine-2,4-diamine]
[1]; [6]
  IC50: 47.5 nM
[1]; [11]
  IC50: 0.4 nM
[2]; [7]
  IC50: 0.5 nM
[2]; [12]
  IC50: 0.2 nM
[3]; [8]
  IC50: 0.3 nM
[3]; [13]
  IC50: 0.1 nM
[4]; [9]
  IC50: 0.3 nM
[4]; [14]
  IC50: 0.2 nM
[5]; [10]
  IC50: 1.6 nM
[5]; [15]
  IC50: 0.2 nM

## O=C1CC[C@]2(CC[C@H](Nc3cc(Nc4ccnc(-c5cnn(S(=O)(=O)C6CC6)c5)n4)ncc3-c3ccn(C(F)F)n3)CC2)N1 [Example 19, (5s,8s)-8-((2-((2-(1-(Cyclopropylsulfonyl)-1H-pyrazol-4-yl)pyrimidin-4-yl)amino)-5-(1-(difluoromethyl)-1H-pyrazol-3-yl)pyridin-4-yl)amino)-1-azaspiro[4.5]decan-2-one]
[1]; [6]
  IC50: > 10000 nM
[1]; [11]
  IC50: 10 nM
[2]; [7]
  IC50: 0.7 nM
[2]; [12]
  IC50: 0.5 nM
[3]; [8]
  IC50: 0.5 nM
[3]; [13]
  IC50: 0.1 nM
[4]; [9]
  IC50: 0.3 nM
[4]; [14]
  IC50: 0.3 nM
[5]; [10]
  IC50: 3.5 nM
[5]; [15]
  IC50: 0.7 nM

## C[C@]1(O)CC[C@@H](Nc2cc(Nc3ccnc(-c4cnn(S(=O)(=O)N5CCCC5)c4)n3)ncc2-c2ccn(C(F)F)n2)CC1 [Example 323, (1s,4s)-4-((5-(1-(Difluoromethyl)-1H-pyrazol-3-yl)-2-((2-(1-(pyrrolidin-1-ylsulfonyl)-1H-pyrazol-4-yl)pyrimidin-4-yl)amino)pyridin-4-yl)amino)-1-methylcyclohexan-1-ol]
[1]; [11]
  IC50: 466 nM
[2]; [12]
  IC50: 1060 nM
[3]; [13]
  IC50: 4.6 nM
[4]; [14]
  IC50: 10.4 nM
[5]; [15]
  IC50: 143 nM

## CN(C)C[C@H]1CC[C@H](CNc2cc(Nc3ccnc(-c4cnn(S(=O)(=O)C5CC5)c4)n3)ncc2-c2csc(C(F)(F)F)n2)CC1 [Example 101, N^2-(2-(1-(Cyclopropylsulfonyl)-1H-pyrazol-4-yl)pyrimidin-4-yl)-N^4-(((1r,4r)-4-((dimethylamino)methyl)cyclohexyl)methyl)-5-(2-(trifluoromethyl)thiazol-4-yl)pyridine-2,4-diamine]
[1]; [6]
  IC50: 828 nM
[2]; [7]
  IC50: 0.4 nM
[2]; [12]
  IC50: 0.4 nM
[3]; [8]
  IC50: 0.3 nM
[3]; [13]
  IC50: 0.1 nM
[4]; [9]
  IC50: 0.3 nM
[4]; [14]
  IC50: 0.3 nM
[5]; [10]
  IC50: 3.8 nM
[5]; [15]
  IC50: 0.8 nM
